Laboratory results: patent US20120122727A1, “IN VITRO METHOD FOR PREDICTING WHETHER A COMPOUND IS GENOTOXIC IN VIVO” (priority 2009, published 2012)

Key:
[1] = system: primary mouse hepatocytes; assay: Gene expression in primary mouse hepatocytes, GTX vs non-GTX (four-gene classifier, 24 h)
Protocol: Hepatocyte cells were incubated and exposed to a compound for 24 h before being harvested for RNA isolation.
The results of the gene expression analysis may then be fed into a statistical software package such as R, Splus, or Microsoft Excel. […] If none or only one of these criteria were met, no point was scored.
For each of the four genes mentioned in the table (1700007K13RIK, GAS2L3, SPC25, DDIT4L), a statistical comparison was made between the normalized expression data for these genes. […] If none or only one of these criteria were met, no point was scored.
For each compound, the sum of the scores for four genes is taken. If this score is 0, a compound can be believed not to be genotoxic. If this score is 1, 2, 3 or 4, a compound is genotoxic.
If none or only one of these criteria were met, no point was scored.

[2] = system: primary mouse hepatocytes; assay: Gene expression (Affymetrix Mouse Genome 430 2.0) in primary mouse hepatocytes, true vs false GTX, 24 h and 48 h

## Aflatoxin B1 [AFB1]
[1]
  Ratios of gene expression treated/untreated 1700007K13RIK: 2.912
  Ratios of gene expression treated/untreated DDIT4L: 1.616
  Ratios of gene expression treated/untreated GAS2L3: 1.234
  Ratios of gene expression treated/untreated SPC25: 1.523
  Total score: 4
  score 1700007K13RIK: 1
  score DDIT4L: 1
  score GAS2L3: 1
  score SPC25: 1
[2]
  Gene expression AA561726 average: −1.481
  Gene expression AF000969 average: −2.346
  Gene expression AF022072 average: −0.9913
  Gene expression AF033112 average: 1.033
  Gene expression AF055573 average: −2.3744
  Gene expression AF069954 average: 0.2361
  Gene expression AF297615 average: 2.175
  Gene expression AF335325 average: 1.3645
  Gene expression AI594683 average: 1.508
  Gene expression AI747296 average: −1.533
  Gene expression AK005731 average: 2.2191
  Gene expression AK007854 average: 1.5416
  Gene expression AK010447 average: −1.2768
  Gene expression AK010738 average: 0.6579
  Gene expression AK014608 average: 1.186
  Gene expression AK017734 average: 0.4796
  Gene expression AK018383 average: 0.4069
  Gene expression AK019979 average: −2.271
  Gene expression AV095209 average: −0.6169
  Gene expression AV141095 average: −1.192
  Gene expression AV173869 average: −0.8814
  Gene expression AV216768 average: −1.282
  Gene expression AV219418 average: 0.8603
  Gene expression AV221299 average: −0.7873
  Gene expression AV246296 average: 1.098
  Gene expression AV251625 average: 0.5471
  Gene expression AV254764 average: 1.543
  Gene expression AV327248 average: 1.4639
  Gene expression BB009155 average: 1.3686
  Gene expression BB027848 average: −0.004367
  Gene expression BB043558 average: 1.629
  Gene expression BB046347 average: 0.5079
  Gene expression BB140436 average: −0.4938
  Gene expression BB204486 average: −1.371
  Gene expression BB223872 average: 0.5263
  Gene expression BB246912 average: −1.2439
  Gene expression BB275142 average: 0.5302
  Gene expression BB458460 average: −1.132
  Gene expression BB463610 average: 1.2472
  Gene expression BB730977 average: −0.256
  Gene expression BB743970 average: 0.3813
  Gene expression BB770528 average: 0.8678
  Gene expression BB781615 average: 0.9722
  Gene expression BC003284 average: 0.7036
  Gene expression BC004827 average: −1.255
  Gene expression BC005552 average: −0.7309
  Gene expression BC006713 average: 0.942
  Gene expression BC010318 average: −0.9565
  Gene expression BC012247 average: 0.7954
  Gene expression BC012955 average: −1.403
  Gene expression BC013893 average: 0.3479
  Gene expression BC017615 average: −2.585
  Gene expression BC019379 average: −1.263
  Gene expression BC019882 average: 1.2329
  Gene expression BC021352 average: 1.59
  Gene expression BC022148 average: 1.0426
  Gene expression BC025169 average: −1.03
  Gene expression BC026131 average: −0.4476
  Gene expression BC027026 average: 0.6995
  Gene expression BC027121 average: 0.9799
  Gene expression BC027185 average: 0.0776
  Gene expression BE956581 average: 1.7703
  Gene expression BF719766 average: 1.1094
  Gene expression BG065754 average: 0.6884
  Gene expression BG066491 average: −1.6995
  Gene expression BG076151 average: 0.4779
  Gene expression BG076333 average: −0.3573
  Gene expression BG797099 average: 1.027
  Gene expression BG967046 average: 0.6249
  Gene expression BI651416 average: 1.979
  Gene expression BI966443 average: 0.699
  Gene expression BM198879 average: 1.579
  Gene expression BM200015 average: 0.9342
  Gene expression BM230508 average: 0.637
  Gene expression BM936480 average: 0.1463
  Gene expression BQ174991 average: −0.6262
  Gene expression L21027 average: −1.868
  Gene expression NM_007556 average: −0.9667
  Gene expression NM_007980 average: 0.412
  Gene expression NM_007987 average: 0.8772
  Gene expression NM_008522 average: 2.271
  Gene expression NM_008935 average: −1.772
  Gene expression NM_009897 average: 1.054
  Gene expression NM_011075 average: 1.1557
  Gene expression NM_011176 average: 1.3047
  Gene expression NM_011316 average: 0.6494
  Gene expression NM_012006 average: 1.7541
  Gene expression NM_013642 average: −0.2528
  Gene expression NM_013738 average: 0.4146
  Gene expression NM_013929 average: 0.7449
  Gene expression NM_018881 average: 0.2001
  Gene expression NM_019738 average: −2.37
  Gene expression NM_030697 average: 1.271
  Gene expression NM_053122 average: −2.304
  Gene expression NM_134147 average: −1.51
  Gene expression NM_134188 average: −0.159
  Gene expression X62701 average: −0.6611
  Gene expression data AF000969 (Cadps2): −2.17
  Gene expression data AF022072 (Grb10): −1.2526
  Gene expression data AF065917 (Lif): 0.6896
  Gene expression data AF204959 (Cyp3a25 /// LOC622249): 1.404
  Gene expression data AF297615 (Ggta1): 1.1224
  Gene expression data AI594683 (Dmn): 1.048
  Gene expression data AI596632 (Ptprg /// LOC632664): −1.9945
  Gene expression data AI987929 (Ndrg1): −0.8074
  Gene expression data AK004419 (Fbxl17): −1.365
  Gene expression data AK005731 (1700007K13Rik): 2.2462
  Gene expression data AK007766 (1810044A24Rik): −1.554
  Gene expression data AK007854 (1810053B23Rik): 1.391
  Gene expression data AK009736 (Gpr137b /// LOC664862 /// LOC673335): −0.5076
  Gene expression data AK010447 (Smyd3): −1.2553
  Gene expression data AK014608 (4632434l11Rik): 1.765
  Gene expression data AK019979 (2610528E23Rik): −2.537
  Gene expression data AV095209 (Mthfd1l): −0.8398
  Gene expression data AV141095 (1110033M05Rik): −1.295
  Gene expression data AV173571 (1700106N22Rik): −1.239
  Gene expression data AV219418 (Ldhb): 0.2817
  Gene expression data AV223474 (Zdhhc14): −1.025
  Gene expression data AV298304 (Homez): 1.03
  Gene expression data AV327248 (Zfp365 /// LOC674611): 0.8055
  Gene expression data AV377066 (9130221J18Rik): 1.0883
  Gene expression data AW240761 (Tbc1d5): −1.118
  Gene expression data AW543460 (Pard3): −0.2756
  Gene expression data AW543723: 1.427
  Gene expression data AW986246 (Maoa): −0.3385
  Gene expression data BB027848 (4732466D17Rik): −0.016
  Gene expression data BB043558 (9230114K14Rik): 1.671
  Gene expression data BB275142 (AW456874): 1.009
  Gene expression data BB308836 (Ppm1l): −1.077
  Gene expression data BB318221 (Zdhhc14): −1.0808
  Gene expression data BB463610 (4632434l11Rik): 1.7658
  Gene expression data BB526605 (Mipol1): −0.7181
  Gene expression data BB770528 (Rai2): 0.7477
  Gene expression data BB821363 (Scfd2): −1.354
  Gene expression data BC004827 (Psat1): −1.0032
  Gene expression data BC008626 (Icam1): 1.4158
  Gene expression data BC010462 (BC010462): 0.9985
  Gene expression data BC012247 (Dcxr): 0.3677
  Gene expression data BC012260 (Psmf1): 1.2375
  Gene expression data BC015270 (Hist2h3c2): 1.093
  Gene expression data BC016073 (Cdkal1): −1.1
  Gene expression data BC016265 (Ube2e2): −0.8797
  Gene expression data BC019882 (Acaa1b): 0.4654
  Gene expression data BC025501 (Aaas): 1.14
  Gene expression data BC025837 (Sbk1): 0.4694
  Gene expression data BC025915 (Cova1): −0.642
  Gene expression data BC026422 (Tgm1): 0.8843
  Gene expression data BF719766 (Thyn1): 0.3892
  Gene expression data BG065754 (Ccng1): 0.8383
  Gene expression data BG066903 (Kif16b): −0.5074
  Gene expression data BG069873 (Gnb1l): 0.7276
  Gene expression data BG070887 (Gtdc1): −1.473
  Gene expression data BG076151 (Ppm1d): 0.6026
  Gene expression data BG261907 (Large): −1.119
  Gene expression data BI651416 (Cdc42bpg): 1.8011
  Gene expression data BI660702 (Ell3): 0.4068
  Gene expression data BM198879 (Ercc5): 1.61
  Gene expression data BM230508 (A030007D23Rik): 0.5919
  Gene expression data NM_007987 (Fas): 0.628
  Gene expression data NM_008522 (Ltf): 1.055
  Gene expression data NM_008576 (Abcc1): −0.1885
  Gene expression data NM_011176 (St14): 1.289
  Gene expression data NM_011316 (Saa4): 0.2733
  Gene expression data NM_012006 (Acot1): 1.251
  Gene expression data NM_013866 (Zfp385): 0.9513
  Gene expression data NM_018770 (Igsf4a): −0.439
  Gene expression data NM_021451 (Pmaip1): 1.1
  Gene expression data NM_025770 (Atg10): −1.128
  Gene expression data NM_028803 (Gbe1): −1.004
  Gene expression data NM_030697 (Ankrd47): 1.8143
  Gene expression data NM_053168 (Trim11): 1.268
  Gene expression data NM_134188 (Acot2): 0.01207
  Gene expression data Y15910 (Diap2): −1.889
